Source: US7858790B2, “Modulators of muscarinic receptors” (Vertex Pharmaceuticals Incorporated, priority 2006, dated 2010)

Key:
M1 muscarinic receptor = biological target: T1, M1 muscarinic receptor (Homo sapiens, UniProt P11229); assay: Functional mobilization of intracellular calcium (FLIPR) in CHO cells expressing M1 muscarinic receptor; assay type: cell-based; conditions: for M1 Activity: CHO cells expressing M1, calcium mobilization; for Emax: CHO, 100% efficacy is the maximum response obtained with the Carbachol control
T1 construct: expressed in transfected cells; host or cells: CHO (M1-CHO recombinant cell line)
T1 sequence (P11229 1-460): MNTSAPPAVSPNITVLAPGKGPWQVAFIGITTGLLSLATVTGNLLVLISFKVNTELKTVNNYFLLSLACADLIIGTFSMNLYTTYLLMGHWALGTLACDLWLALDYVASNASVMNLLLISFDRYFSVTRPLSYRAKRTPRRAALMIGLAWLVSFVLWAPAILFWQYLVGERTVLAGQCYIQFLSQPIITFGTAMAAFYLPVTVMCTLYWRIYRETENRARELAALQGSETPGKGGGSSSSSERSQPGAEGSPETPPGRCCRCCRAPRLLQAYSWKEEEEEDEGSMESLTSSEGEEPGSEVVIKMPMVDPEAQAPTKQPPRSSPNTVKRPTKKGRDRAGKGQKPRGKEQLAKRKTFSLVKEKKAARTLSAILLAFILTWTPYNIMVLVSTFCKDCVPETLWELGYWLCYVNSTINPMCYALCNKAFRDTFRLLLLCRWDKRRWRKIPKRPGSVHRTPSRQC
Method in brief: (§1)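 CHO cells loaded with Fluo-3 or Calcium 3 dye in pH 7.4 bath buffer with 1 mM probenecid, 0.5% DMSO. Agonist mode: compound added directly; inhibition mode: 15 min pre-incubation, then carbachol at EC80 (or co-application). Fluorescence recorded 60 s on FLIPR; efficacy relative to carbachol maximum.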

M4 muscarinic receptor = biological target: T2, M4 muscarinic receptor (Homo sapiens, UniProt P08173); assay: Functional mobilization of intracellular calcium (FLIPR) in CHO cells expressing M4 muscarinic receptor; assay type: cell-based; conditions: for M4 Activity: CHO cells expressing M4, calcium mobilization; for Emax: CHO, 100% efficacy is the maximum response obtained with the Carbachol control
T2 construct: expressed in transfected cells; host or cells: CHO (M4-CHO recombinant cell line)
T2 sequence (P08173 1-479): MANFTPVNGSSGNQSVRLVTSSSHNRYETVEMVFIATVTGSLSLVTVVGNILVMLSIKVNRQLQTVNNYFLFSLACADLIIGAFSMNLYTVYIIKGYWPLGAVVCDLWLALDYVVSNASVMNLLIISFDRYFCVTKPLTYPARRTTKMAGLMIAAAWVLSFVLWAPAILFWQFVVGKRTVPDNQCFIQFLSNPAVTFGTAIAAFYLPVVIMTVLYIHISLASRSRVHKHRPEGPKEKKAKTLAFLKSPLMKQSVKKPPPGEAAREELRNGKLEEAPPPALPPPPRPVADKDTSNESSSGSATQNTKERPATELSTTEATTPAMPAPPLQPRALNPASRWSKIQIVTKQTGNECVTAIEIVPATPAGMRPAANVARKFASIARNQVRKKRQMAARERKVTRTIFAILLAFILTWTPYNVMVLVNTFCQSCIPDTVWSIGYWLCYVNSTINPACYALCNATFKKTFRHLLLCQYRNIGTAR
Method in brief: as §1

| SMILES | M1 Activity (M1 muscarinic receptor) | Emax (M1 muscarinic receptor) [%] | M4 Activity (M4 muscarinic receptor) | Emax (M4 muscarinic receptor) [%] |
| --- | --- | --- | --- | --- |
| CCC(CC)NC(=O)C1=CC2(CCNCC2)c2ccccc21 [compound 57] | + (activity was measured to be greater than 10.0 μM) | < 25 | + (activity was measured to be greater than 10.0 μM) | < 25 |
| CCCOC(=O)N1CCC(N2CCC3(C=C(C(=O)NC(CC)CC)c4ccccc43)CC2)CC1 [compound 42] | + (activity was measured to be greater than 10.0 μM) | < 25 | + (activity was measured to be greater than 10.0 μM) | < 25 |
| CCC(CC)NC(=O)C1=CC2(CCN(C3CCCC3)CC2)c2ccccc21 [compound 17] | + (activity was measured to be greater than 10.0 μM) | < 25 | + (activity was measured to be greater than 10.0 μM) | 25 to 100 |
| CNC(=O)C1=CC2(CCN(CCCCSC)CC2)c2ccccc21 [compound 49] | + (activity was measured to be greater than 10.0 μM) | < 25 | + (activity was measured to be greater than 10.0 μM) | < 25 |
| CCOC(=O)N1CCC(N2CCC3(C=C(C(=O)N(C)C)c4ccccc43)CC2)CC1 [compound 60] | +++ (activity was measured to be less than 2.0 μM) | 25 to 100 | +++ (activity was measured to be less than 2.0 μM) | 25 to 100 |
| CN(C)C(=O)C1=CCC2(CCN(CCC(C)(C)C)CC2)c2ccccc21 [compound 46] | ++ (activity was measured to be from 2.0 μM to 10.0 μM) | 25 to 100 | +++ (activity was measured to be less than 2.0 μM) | 25 to 100 |
| CC(C)NC(=O)C1=CCC2(CCN(CCC(C)(C)C)CC2)c2ccccc21 [compound 52] | + (activity was measured to be greater than 10.0 μM) | < 25 | + (activity was measured to be greater than 10.0 μM) | < 25 |
| CCC(CC)NC(=O)C1=CC2(CCN(C3CCN(C(=O)OC)CC3)CC2)c2ccccc21 [compound 71] | + (activity was measured to be greater than 10.0 μM) | < 25 | +++ (activity was measured to be less than 2.0 μM) | 25 to 100 |
| CCC(CC)NC(=O)C1=CC2(CCN(CCC3CCSCC3)CC2)c2ccccc21 [compound 76] | + (activity was measured to be greater than 10.0 μM) | < 25 | + (activity was measured to be greater than 10.0 μM) | < 25 |
| CCC(CC)NC(=O)C1=CC2(CCN(C3CCN(C(=O)N(C)C)CC3)CC2)c2ccccc21 [compound 33] | + (activity was measured to be greater than 10.0 μM) | < 25 | + (activity was measured to be greater than 10.0 μM) | < 25 |
| CC(C)(C)CCN1CCC2(C=C(C(=O)O)c3ccccc32)CC1 [Compound No. 20, 1′-(3,3-dimethylbutyl)spiro[indene-1,4′-piperidine]-3-carboxylic acid] | + (activity was measured to be greater than 10.0 μM) | < 25 | +++ (activity was measured to be less than 2.0 μM) | < 25 |
| CC(C)(C)CCN1CCC2(C=C(C(=O)N3CCCCC3)c3ccccc32)CC1 [Compound No. 37] | +++ (activity was measured to be less than 2.0 μM) | 25 to 100 | +++ (activity was measured to be less than 2.0 μM) | 25 to 100 |
